According to ChEMBL document CHEMBL1201862, “PubChem BioAssay data set” (2004):
Calls of active or inactive are those of the source.

How the values were obtained:
[1] = target: Dual specificity protein phosphatase 3 (Homo sapiens, UniProt P51452); assay: VHR phosphatase inhibition, dose response, selectivity assay for STEP inhibitor project, biochemical (AID 602374); type: functional; conditions: read-out: IC50_Mean
[2] = target: Tyrosine-protein phosphatase non-receptor type 11 (Homo sapiens, UniProt Q06124); assay: SHP2 phosphatase inhibition, dose response, selectivity assay for STEP inhibitor project, biochemical (AID 602367); type: functional; conditions: read-out: IC50_Mean
[3] = target: Tyrosine-protein phosphatase non-receptor type 5 (Homo sapiens, UniProt P54829); assay: STEP phosphatase inhibitors, confirmation, biochemical, fluorescence intensity, uHTS hits (AID 602372); type: functional; conditions: read-out: IC50_Mean
[4] = AlphaScreen signal interference compounds, dose response, artefact control for ARNT-TACC3 interaction inhibitor project, biochemical, luminescence, cherry-pick (AID 651705); type: functional;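 also: AlphaScreen bead proximity signal that flags compounds interfering with the detection technology; potency reflects signal decrease which marks the compound as an assay artifact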
cells = type: functional
[5] = target: T1, Type-1 angiotensin II receptor (Homo sapiens, UniProt P30556); assay: AT1 receptor antagonists, dose response, selectivity assay for APJ receptor antagonist project, cell-based, uHTS hits (AID 463214); type: functional;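 also: antagonist potency against angiotensin II stimulated AT1 response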
T1 sequence (P30556 whole entry): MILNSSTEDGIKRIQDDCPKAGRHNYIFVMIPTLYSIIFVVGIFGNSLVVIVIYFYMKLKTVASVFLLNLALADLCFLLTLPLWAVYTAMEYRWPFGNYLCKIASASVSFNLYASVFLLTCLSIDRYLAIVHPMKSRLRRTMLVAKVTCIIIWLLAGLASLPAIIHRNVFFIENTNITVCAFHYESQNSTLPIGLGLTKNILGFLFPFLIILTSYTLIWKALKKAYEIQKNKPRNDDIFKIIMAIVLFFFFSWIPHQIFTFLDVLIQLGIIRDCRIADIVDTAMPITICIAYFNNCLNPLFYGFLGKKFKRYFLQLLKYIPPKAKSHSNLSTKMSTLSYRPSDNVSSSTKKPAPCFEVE

[6] = growth suppression of PTEN-null colon cells, dose response, cell-based, HCT116 PTEN knockout (AID 1047); type: functional;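 also: HCT116 colon tumor cells with PTEN knocked out; cells exposed to compound for 60 hours before readout; potency for loss of cell viability measured by luminescence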
[7] = Vero E6 cell cytotoxicity, dose response, cytotoxicity control for non-replicating M. tuberculosis project, secondary assay (AID 492998); type: functional, VeroE6; conditions: Vero C1008
[8] = THP-1 cell cytotoxicity, dose response, cytotoxicity control for non-replicating M. tuberculosis project (AID 489025); type: functional
[9] = growth suppression of beta-catenin-knockout colon cells, dose response, cell-based, HCT116, human colon tumor (AID 1045); type: functional;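 also: HCT116 colon tumor cells with beta catenin knocked out; cells exposed to compound for 60 hours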
Beta-galactosidase = Beta-galactosidase (Escherichia coli, UniProt Q8VNN2); assay: PubChem AID 485352; type: functional
[10] = target: Adenosylmethionine-8-amino-7-oxononanoate aminotransferase (Mycobacterium tuberculosis, UniProt P9WQ81); assay: Mycobacterium tuberculosis BioA enzyme inhibitor Measured in Biochemical System Using Plate Reader - 2163-02_Inhibitor_Dose_CherryPick_Activity.; type: functional, Mycobacterium tuberculosis UT205
[11] = ARNT/TACC3 interaction disruptors, potency, confirmation, biochemical, AlphaScreen, cherry-picked samples (AID 651703); type: functional, Homo sapiens;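 also: His-tagged ARNT PAS-B domain paired with GST-TACC3 E629A dimer coactivator fragment; potency of inhibitors that break up the complex and lower AlphaScreen signal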
Streptococcus = assay: Group A Streptococcus viability loss, dose response, counter-screen for streptokinase expression inhibitor project, luminescence, BacTiterGlo (AID 1915); type: functional, organism-based;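 also: potency for reduction of bacterial viability or growth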
Vero = Vero cell cytotoxicity, cytotoxicity control for flavivirus capping enzyme inhibitors (AID 588742); type: functional; conditions: Chlorocebus sabaeus
[12] = THP-1 cell cytotoxicity, dose response, cytotoxicity control for Vif-APOBEC3G degradation inhibitor project, THP-1 cells (AID 1117359); type: functional; conditions: Human immunodeficiency virus 1, THP-1
INS1 = assay: beta cell apoptosis inhibitors, cytokine rescue, dose response, luminescence, retest (AID 449756); type: functional, cell-based; conditions: Rattus norvegicus;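 also: cell death triggered by IL-1 beta plus TNF-alpha plus IFN-gamma mixture; protective hits raise ATP signal compared with cytokine alone wells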
[13] = system: Streptococcus sp. 'group A'; assay: growth inhibition of control SK(-) GAS strain, dose response, counter-screen for streptokinase expression inhibitor project, luminescence, kanamycin, BacTiterGlo, confirmation (AID 1900); type: functional, organism-based
Phospholipase D2 = Phospholipase D2 (Homo sapiens, UniProt O14939); assay: PLD2 inhibitor potency in cells, dose response (AID 602147); type: functional;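 also: cellular assay in HEK293 cells overexpressing GFP-tagged PLD2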
Phospholipase D1 = target: T2, Phospholipase D1 (Homo sapiens, UniProt Q13393); assay: PLD1 inhibitor potency in cells, dose response (AID 602151); type: functional;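 also: cellular PLD1 assay in Calu-1 cells stimulated with PMA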
T2 sequence (Q13393 whole entry): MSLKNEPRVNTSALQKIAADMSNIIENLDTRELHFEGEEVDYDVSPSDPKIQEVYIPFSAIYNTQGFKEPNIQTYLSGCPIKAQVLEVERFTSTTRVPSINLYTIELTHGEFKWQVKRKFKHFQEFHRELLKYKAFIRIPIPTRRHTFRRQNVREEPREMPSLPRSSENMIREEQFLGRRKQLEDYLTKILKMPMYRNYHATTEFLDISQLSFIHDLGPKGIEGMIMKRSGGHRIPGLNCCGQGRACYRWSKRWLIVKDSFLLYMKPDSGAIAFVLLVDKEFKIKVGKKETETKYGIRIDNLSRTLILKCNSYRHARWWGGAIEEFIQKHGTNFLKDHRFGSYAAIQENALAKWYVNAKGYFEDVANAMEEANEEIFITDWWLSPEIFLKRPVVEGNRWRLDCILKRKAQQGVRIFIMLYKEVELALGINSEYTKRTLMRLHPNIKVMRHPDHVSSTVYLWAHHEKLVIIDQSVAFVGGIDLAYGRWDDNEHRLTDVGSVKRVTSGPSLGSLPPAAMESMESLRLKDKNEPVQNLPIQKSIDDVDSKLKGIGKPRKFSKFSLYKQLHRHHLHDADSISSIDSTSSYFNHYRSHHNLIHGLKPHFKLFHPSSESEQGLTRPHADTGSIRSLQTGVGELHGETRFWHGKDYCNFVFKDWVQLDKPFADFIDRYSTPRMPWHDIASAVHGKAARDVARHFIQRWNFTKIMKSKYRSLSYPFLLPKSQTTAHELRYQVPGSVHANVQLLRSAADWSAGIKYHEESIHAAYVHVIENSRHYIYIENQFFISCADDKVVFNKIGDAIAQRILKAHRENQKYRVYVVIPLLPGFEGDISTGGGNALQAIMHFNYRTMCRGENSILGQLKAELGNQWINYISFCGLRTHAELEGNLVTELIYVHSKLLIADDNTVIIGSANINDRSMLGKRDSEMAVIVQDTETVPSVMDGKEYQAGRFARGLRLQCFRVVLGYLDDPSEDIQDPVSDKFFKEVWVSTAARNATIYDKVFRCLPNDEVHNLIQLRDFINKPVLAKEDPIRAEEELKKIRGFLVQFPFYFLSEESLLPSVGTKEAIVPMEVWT

[14] = target: T3, Rac GTPase-activating protein 1 (Homo sapiens, UniProt Q9H0H5); assay: MgcRacGAP GTPase-activating activity inhibitors, confirmation, biochemical, ADP Hunter fluorescence, primary and confirmatory (AID 624330); type: functional
T3 sequence (Q9H0H5 whole entry): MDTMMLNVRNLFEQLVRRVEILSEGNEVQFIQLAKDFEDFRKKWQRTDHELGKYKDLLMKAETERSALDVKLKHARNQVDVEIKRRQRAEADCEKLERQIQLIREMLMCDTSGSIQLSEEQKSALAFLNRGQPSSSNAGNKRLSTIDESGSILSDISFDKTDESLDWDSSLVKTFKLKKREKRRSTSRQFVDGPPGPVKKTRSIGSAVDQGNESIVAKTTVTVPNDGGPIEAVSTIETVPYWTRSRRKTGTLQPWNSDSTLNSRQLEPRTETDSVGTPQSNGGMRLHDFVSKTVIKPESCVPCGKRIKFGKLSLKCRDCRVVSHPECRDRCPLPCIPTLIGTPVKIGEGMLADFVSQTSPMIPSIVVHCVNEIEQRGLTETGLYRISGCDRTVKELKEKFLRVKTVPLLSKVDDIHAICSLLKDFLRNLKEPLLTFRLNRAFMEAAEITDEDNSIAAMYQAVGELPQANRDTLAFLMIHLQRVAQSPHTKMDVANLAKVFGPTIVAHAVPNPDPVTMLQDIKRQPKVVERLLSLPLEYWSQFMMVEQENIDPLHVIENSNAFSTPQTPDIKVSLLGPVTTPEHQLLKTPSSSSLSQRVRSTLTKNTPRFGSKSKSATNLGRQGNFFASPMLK

[15] = target: DNA (cytosine-5)-methyltransferase 1 (Homo sapiens, UniProt P26358); assay: DNMT1 methyltransferase inhibitors, confirmation, biochemical, fluorescent molecular beacon (AID 602386); type: functional
Hexokinase HKDC1 = target: T4, Hexokinase HKDC1 (Homo sapiens, UniProt Q2TB90); assay: HKDC1 hexokinase inhibitors, dose response, biochemical, W721R variant (AID 504729); type: functional
T4 sequence (Q2TB90 whole entry): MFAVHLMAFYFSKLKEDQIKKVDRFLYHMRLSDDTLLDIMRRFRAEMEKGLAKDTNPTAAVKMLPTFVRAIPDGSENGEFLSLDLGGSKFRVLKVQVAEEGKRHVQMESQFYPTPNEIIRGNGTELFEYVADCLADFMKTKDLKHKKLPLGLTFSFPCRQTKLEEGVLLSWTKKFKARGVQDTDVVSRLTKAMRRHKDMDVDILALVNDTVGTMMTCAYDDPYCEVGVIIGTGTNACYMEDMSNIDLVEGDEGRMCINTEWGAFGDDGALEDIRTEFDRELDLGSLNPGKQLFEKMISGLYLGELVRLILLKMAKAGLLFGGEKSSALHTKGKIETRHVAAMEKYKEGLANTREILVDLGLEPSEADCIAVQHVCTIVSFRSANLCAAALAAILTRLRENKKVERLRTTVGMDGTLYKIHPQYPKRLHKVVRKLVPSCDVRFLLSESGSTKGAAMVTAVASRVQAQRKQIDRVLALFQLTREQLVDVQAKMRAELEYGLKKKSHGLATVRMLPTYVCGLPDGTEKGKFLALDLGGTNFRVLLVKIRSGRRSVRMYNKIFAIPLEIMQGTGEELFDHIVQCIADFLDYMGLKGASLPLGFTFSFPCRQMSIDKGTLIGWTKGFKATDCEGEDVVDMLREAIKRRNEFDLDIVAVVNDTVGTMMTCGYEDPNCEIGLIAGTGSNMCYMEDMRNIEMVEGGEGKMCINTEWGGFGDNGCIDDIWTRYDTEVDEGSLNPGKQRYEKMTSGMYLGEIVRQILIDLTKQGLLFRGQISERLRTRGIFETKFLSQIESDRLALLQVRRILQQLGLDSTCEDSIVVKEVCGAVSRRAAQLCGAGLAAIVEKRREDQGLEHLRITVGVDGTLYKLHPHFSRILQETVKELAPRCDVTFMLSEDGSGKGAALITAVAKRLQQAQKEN

Genome polyprotein = Genome polyprotein (dengue virus type 2, UniProt P29990); assay: Dengue-2 NS5 methyltransferase inhibitors, primary screen, biochemical, confirmation dose response (AID 588689); type: functional
[16] = target: T5, Tyrosyl-DNA phosphodiesterase 2 (Homo sapiens, UniProt O95551); assay: human TDP2 enzyme inhibitors, dose response, biochemical, epi absorbance, IC50 (AID 743297)
T5 sequence (O95551 whole entry): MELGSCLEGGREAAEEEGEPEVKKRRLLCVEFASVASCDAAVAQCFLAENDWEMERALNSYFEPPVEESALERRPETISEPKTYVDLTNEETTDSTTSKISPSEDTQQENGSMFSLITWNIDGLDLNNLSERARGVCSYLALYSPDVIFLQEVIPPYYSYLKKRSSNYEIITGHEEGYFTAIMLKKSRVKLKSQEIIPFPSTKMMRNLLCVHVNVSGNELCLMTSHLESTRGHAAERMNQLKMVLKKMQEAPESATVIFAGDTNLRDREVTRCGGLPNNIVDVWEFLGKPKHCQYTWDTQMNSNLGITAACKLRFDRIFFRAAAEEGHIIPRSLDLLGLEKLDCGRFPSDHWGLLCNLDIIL

Phospholipase D2, sequence (O14939 whole entry): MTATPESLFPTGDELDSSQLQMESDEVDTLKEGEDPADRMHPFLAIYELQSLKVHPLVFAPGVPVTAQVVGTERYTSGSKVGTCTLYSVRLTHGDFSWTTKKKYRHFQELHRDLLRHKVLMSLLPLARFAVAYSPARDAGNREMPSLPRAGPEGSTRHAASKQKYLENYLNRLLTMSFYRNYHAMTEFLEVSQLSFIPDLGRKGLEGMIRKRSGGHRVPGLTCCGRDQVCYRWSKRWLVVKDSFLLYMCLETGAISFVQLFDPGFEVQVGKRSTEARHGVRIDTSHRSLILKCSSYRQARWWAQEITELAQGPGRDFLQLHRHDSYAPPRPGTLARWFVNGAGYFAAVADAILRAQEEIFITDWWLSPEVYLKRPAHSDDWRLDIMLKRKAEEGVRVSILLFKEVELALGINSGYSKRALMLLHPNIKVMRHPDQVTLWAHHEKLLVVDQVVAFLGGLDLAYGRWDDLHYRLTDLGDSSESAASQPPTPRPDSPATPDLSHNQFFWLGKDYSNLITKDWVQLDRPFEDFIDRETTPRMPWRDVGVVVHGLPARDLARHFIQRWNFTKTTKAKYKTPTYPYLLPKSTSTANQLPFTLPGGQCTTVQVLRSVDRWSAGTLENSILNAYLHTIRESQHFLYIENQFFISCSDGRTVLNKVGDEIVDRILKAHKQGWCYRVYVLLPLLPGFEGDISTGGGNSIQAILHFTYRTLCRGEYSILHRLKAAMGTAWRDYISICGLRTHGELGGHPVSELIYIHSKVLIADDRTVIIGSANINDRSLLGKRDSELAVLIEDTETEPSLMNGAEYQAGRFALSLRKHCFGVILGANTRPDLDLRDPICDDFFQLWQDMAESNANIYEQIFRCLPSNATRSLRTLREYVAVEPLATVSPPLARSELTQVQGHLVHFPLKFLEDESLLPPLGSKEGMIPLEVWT
Adenosylmethionine-8-amino-7-oxononanoate aminotransferase, sequence (P9WQ81 whole entry, the tested form may be a part): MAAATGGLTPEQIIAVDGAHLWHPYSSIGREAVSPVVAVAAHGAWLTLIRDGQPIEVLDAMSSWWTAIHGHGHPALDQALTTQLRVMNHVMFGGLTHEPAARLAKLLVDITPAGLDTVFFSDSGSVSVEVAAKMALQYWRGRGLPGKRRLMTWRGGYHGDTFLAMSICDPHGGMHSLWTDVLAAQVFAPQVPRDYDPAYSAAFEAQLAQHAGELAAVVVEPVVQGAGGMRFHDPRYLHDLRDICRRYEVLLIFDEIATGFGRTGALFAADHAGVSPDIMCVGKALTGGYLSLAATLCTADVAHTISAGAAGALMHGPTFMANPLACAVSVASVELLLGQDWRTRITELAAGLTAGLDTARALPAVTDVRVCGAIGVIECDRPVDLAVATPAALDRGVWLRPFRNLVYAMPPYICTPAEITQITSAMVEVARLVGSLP
Beta-galactosidase, sequence (Q8VNN2 whole entry): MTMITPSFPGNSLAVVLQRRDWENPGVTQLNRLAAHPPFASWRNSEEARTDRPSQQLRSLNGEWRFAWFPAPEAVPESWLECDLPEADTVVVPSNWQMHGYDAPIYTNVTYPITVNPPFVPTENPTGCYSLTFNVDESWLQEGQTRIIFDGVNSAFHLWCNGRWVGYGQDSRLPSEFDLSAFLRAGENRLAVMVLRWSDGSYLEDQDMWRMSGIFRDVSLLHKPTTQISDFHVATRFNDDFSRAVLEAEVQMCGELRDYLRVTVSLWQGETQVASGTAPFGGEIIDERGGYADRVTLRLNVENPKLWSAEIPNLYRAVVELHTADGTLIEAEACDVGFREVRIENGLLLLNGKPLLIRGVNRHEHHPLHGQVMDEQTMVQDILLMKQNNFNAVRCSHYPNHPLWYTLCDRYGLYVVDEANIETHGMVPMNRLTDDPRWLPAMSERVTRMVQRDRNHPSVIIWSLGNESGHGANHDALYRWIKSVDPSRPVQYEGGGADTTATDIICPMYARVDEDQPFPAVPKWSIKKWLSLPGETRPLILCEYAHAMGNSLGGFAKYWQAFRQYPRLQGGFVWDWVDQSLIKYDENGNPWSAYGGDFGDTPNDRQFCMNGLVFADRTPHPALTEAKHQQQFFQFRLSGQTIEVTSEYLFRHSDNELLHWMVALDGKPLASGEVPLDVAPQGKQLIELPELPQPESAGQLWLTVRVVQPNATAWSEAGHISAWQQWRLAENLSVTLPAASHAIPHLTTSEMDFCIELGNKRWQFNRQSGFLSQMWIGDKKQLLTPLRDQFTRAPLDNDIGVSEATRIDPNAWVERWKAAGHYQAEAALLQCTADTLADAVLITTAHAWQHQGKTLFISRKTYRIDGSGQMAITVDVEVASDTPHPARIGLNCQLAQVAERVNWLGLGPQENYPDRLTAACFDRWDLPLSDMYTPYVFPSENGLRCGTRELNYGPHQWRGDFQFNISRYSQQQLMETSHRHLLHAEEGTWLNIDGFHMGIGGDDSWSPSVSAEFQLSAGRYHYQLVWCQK
Tyrosine-protein phosphatase non-receptor type 5, sequence (P54829 whole entry): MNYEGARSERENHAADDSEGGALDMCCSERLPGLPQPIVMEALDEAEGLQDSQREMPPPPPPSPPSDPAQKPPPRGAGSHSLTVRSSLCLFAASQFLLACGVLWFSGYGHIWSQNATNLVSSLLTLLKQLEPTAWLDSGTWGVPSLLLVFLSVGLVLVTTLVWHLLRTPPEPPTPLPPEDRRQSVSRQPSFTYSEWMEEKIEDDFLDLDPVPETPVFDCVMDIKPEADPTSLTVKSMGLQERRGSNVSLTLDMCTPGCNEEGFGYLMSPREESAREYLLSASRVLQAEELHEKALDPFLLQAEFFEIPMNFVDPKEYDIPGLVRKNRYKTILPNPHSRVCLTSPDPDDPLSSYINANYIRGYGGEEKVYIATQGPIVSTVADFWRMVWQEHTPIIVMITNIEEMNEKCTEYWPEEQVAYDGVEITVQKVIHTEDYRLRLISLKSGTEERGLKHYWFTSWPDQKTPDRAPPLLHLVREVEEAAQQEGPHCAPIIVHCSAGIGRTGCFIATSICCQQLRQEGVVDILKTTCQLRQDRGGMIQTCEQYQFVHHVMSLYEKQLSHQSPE
DNA (cytosine-5)-methyltransferase 1, sequence (P26358 whole entry): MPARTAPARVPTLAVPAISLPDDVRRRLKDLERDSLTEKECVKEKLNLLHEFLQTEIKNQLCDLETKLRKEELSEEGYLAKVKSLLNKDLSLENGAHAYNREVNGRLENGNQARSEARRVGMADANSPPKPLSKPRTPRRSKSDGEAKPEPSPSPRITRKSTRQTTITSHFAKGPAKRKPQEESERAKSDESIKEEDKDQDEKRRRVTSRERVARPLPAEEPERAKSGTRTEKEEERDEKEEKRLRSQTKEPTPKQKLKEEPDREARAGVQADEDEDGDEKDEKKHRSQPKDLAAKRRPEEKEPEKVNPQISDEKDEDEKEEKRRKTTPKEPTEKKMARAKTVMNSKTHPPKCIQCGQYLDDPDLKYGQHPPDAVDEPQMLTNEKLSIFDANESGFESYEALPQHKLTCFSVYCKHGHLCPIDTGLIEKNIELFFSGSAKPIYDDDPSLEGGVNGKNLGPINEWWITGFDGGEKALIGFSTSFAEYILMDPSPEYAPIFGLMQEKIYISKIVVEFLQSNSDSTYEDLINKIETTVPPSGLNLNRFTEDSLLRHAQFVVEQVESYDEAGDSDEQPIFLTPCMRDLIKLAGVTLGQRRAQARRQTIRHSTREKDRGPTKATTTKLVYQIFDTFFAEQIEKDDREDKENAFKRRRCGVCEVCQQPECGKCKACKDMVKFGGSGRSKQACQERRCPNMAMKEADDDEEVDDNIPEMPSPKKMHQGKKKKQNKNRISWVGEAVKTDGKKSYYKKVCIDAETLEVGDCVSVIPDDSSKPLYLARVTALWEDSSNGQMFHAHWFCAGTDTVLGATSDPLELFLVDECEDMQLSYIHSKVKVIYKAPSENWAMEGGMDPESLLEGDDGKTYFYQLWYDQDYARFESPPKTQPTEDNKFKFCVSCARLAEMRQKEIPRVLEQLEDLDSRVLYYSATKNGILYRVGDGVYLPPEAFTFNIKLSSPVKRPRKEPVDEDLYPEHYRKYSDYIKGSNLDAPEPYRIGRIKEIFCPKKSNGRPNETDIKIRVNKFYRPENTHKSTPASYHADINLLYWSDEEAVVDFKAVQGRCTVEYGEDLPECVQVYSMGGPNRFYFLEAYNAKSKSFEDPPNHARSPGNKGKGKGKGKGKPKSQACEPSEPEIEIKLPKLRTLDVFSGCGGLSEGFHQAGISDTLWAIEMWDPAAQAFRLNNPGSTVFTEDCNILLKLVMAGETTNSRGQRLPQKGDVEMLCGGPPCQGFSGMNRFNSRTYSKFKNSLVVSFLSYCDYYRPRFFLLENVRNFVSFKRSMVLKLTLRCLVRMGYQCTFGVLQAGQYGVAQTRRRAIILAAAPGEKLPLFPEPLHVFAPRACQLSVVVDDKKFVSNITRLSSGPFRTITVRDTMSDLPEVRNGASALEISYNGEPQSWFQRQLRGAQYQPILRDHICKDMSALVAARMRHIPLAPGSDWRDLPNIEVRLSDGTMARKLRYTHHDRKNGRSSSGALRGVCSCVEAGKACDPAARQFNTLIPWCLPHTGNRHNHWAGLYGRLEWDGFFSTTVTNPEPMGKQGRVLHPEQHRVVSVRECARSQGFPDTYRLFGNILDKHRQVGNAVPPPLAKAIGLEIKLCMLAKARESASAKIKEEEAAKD
Dual specificity protein phosphatase 3, sequence (P51452 whole entry): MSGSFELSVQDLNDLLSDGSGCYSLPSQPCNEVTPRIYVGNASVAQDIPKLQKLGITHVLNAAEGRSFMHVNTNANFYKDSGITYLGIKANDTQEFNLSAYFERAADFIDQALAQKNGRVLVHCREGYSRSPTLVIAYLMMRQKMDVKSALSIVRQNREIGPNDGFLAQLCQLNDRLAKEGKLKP

COc1ccccc1Nc1ccc([N+](=O)[O-])cc1N
IC50 [1]: 3.2 µM (active) | IC50 [2]: 8.01 µM (active) | IC50 [3]: 34.5 µM (inactive)

O=C(CSc1ccc2nnc(-c3ccccn3)n2n1)NCc1ccco1
AC50 [4]: 99 µM (active)

O=C1c2cccc3c([N+](=O)[O-])ccc(c23)C(=O)N1c1ccc(Cl)cn1
IC50 (cells): 8.7 µM (active) | IC50 [5]: 15.5 µM (active) | EC50 [6]: 1.58 µM (active) | CC50 [7]: 10.1 µM (active) | CC50 [8]: 1.34 µM (active) | EC50 [9]: 0.905 µM (active) | EC50 (Beta-galactosidase): > 40 µM (inactive)

Cc1cccc(-c2nnc(SCC#N)n2-c2ccccc2)c1
AC50 [10]: 3.22 µM (active)

CCOc1ccc(-c2cnc(N)n2C)cc1
AC50 [11]: 93.9 µM (active)

O=C1C(Cl)=C(Nc2ccc3c[nH]nc3c2)C(=O)c2ccccc21
EC50 (Streptococcus): 15.1 µM (active) | CC50 (Vero): 9.81 µM (active) | CC50 [12]: 2.49 µM (active) | AC50 (INS1): 3.56 µM (active) | EC50 [13]: 0.928 µM (active)

O=C(c1ccc(Cl)cc1)N(CCN1CCC(n2c(=O)[nH]c3ccccc32)CC1)C(=O)c1ccc(Cl)cc1
IC50 (Phospholipase D2): 2.7 µM (active) | IC50 (Phospholipase D1): 0.21 µM (active)

CC(C)n1c(N2CCN(C(=O)c3cccs3)CC2)nc2ccccc21
AC50 [10]: 10.6 µM (active)

CNS(=O)(=O)c1cccc(C(=O)OCC(=O)c2cc3ccccc3o2)c1
IC50 [5]: 15.5 µM (active) | EC50 (Beta-galactosidase): > 40 µM (inactive)

COc1cc(/C=C/C=C2/CC/C(=C/C=C/c3ccc(O)c(OC)c3)C2=O)ccc1O
CC50 [12]: 24.1 µM (active) | IC50 [14]: 99.4 µM (active) | IC50 [15]: 8.22 µM (active)

O=C(NCCN1CCC2(CC1)C(=O)NCN2c1cccc(Br)c1)c1ccc2ccccc2c1
IC50 (Phospholipase D2): 0.68 µM (active) | IC50 (Phospholipase D1): 4.6 µM (active)

Cc1ccc(-n2c3nc(=O)[nH]c(=O)c-3cc3cc([N+](=O)[O-])ccc32)cc1
CC50 (Vero): > 40 µM (active) | IC50 (Hexokinase HKDC1): 10.3 µM (active) | IC50 (Genome polyprotein): 22.9 µM (active) | IC50 [16]: > 128 µM (inactive)

O=C(NCCN1CCC(n2c(=O)[nH]c3ccccc32)CC1)NCc1cccc(F)c1
IC50 (Phospholipase D2): 1.8 µM (active) | IC50 (Phospholipase D1): 0.107 µM (active)
